Assay results taken from patent publication US11491224B2, “Bladder cancer photodynamic therapeutic agents with off-on magnetic resonance imaging enhancement” (Hong Kong Baptist University, priority 2018, dated 2022).
Like-named read-outs stand apart in the source and are kept apart here.

Key:
[1] = T1 and T2 relaxivity measurements; format: physicochemical
Experimental: t1 relaxivity of the proposed MR-available PDT agent—NLPor-Gd-L1Rn (n=1 to 3) was measured. […] Without wishing to be bound by theory, this difference in relaxivity could be due to the different coordinative numbers of them: for NLPor-Gd-L1Rn, (n=1 to 3) the coordinative protection for the central Gd^3+ ion is better than that of Gd-DOTA, so the Gd^3+ ion in NLPor-Gd-L1Rn (n=1 to 3) has less chance to exchange with water protons compared to Gd-DOTA. The responsive t1 of NLPor-Gd-L1Rn (n=1-3) have been evaluated with the addition of different concentrations of αvβ3 integrin. […] (FIG. 6). When the αvβ3 integrin (targeting) binding might readily interact with two molecules and affect t1 relaxivity from 2nd or outer coordination spheres. The t1 relaxivity of NLPor-Gd-L1R3 is enhanced from 0.2847 mM^−1s^−1 to 3.225 mM^−1s^−1 with the addition of αvβ3 integrin.
t1 relaxivity of the proposed MR-available PDT agent—M-NLPor-Cyc-L2An (n=1 or 2) was measured. […]
The absorption and emission spectra of Zn-NLPorB2-Cyc-Gd-L2A2 and its precursor without Gd, Zn-NLPorB2-Cyc-L2A2 were measured in aqueous solution (FIGS. 54b and 54c). […] The singlet oxygen quantum yields (ΦΔ) of Zn-NLPorB2-Cyc-Gd-L2A2 and Zn-NLPorB2-Cyc-L2A2 were measured in CHCl3 and calculated by comparing to a reference compound tetraphenylporphyrin, H2TPP, (ΦΔ=0.55 in CHCl3). […]

[2] = test system: T24 bladder cancer xenografts; details: 100 μmol/kg (0.1 mmol/kg gadolinium), tail vein injection
Experimental: MRI signal enhancement was assessed by performing in vivo MRI measurements in three BALB/c nude mice bearing T24 bladder cancer xenografts. Three tumor models were developed by subcutaneous injection of T24 bladder cancer cells. […] MR images were acquired before and after tail vein injection of 200 μl of each sample at various time points.
MR images were acquired before and after 200 μL tail vein injection of each subject at various times.

[3] = in PBS buffer, reference value; cited from earlier work

Compound	T1 relaxivity ([1]; 1.4T in water with 3% DMSO, 37° C.)	T1 relaxivity (r1) ([1]; 1.5 T in water (3% DMSO))	post-injection MRI signal enhancement [2]	post-injection MRI signal enhancement ([2]; listed as GdDOTA)	singlet oxygen quantum yield of reference (ΦRB) [3]
O=C([O-])CN1CCN(CC(=O)[O-])CCN(CC(=O)O)CCN(CC(=O)[O-])CC1.[Gd+3] [Gd-DOTA, reference compound]	2.92 mM⁻¹ s⁻¹	2.92 mM⁻¹ s⁻¹	weak post-injection signal enhancement	Weak post injection signal enhancement	–
O=C1OC2(c3cc(I)c(O)c(I)c3Oc3c2cc(I)c(O)c3I)c2c(Cl)c(Cl)c(Cl)c(Cl)c21 [RB, Rose Bengal]	–	–	–	–	0.75
